Counter-ions that a name gives are not always drawn.
Biological target: KRas G12C (Homo sapiens, UniProt P01116, G12C)
Test: Cellular inhibition of KRas G12C measured by Phospho-ERK in NCI-H358 cells
Assay type: cell-based
Conditions: pERK(Thr202/Tyr204) normalized with GAPDH, NCI-H358 cells, 3 hours; read-out: IC50
Method in brief: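 Following 8-12 h attachment, NCI-H358 cells got serially diluted compound (0.5% DMSO) for 3 hours. Cells were then fixed, permeabilized with cold methanol, and stained for pERK(Thr202/Tyr204) and GAPDH. Ratios were converted to percent of DMSO control, with IC50 obtained by four-parameter regression.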

Chain of KRas G12C (P01116 1-188 isoform P01116-2 G12C): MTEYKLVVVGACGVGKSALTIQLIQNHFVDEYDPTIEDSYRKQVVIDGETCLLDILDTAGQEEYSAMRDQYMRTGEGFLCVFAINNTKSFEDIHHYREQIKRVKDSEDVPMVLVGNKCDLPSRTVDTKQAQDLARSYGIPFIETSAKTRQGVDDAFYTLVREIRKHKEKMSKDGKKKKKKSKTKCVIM

Compound	IC50 [nM]
C=CC(=O)N1CCN(c2nc(OCCCN3CCOCC3)nc3c2CCN(c2cc(C(F)F)cc4ccccc24)C3)CC1 [Example 112, 1-(4-(7-(3-(difluoromethyl)naphthalen-1-yl)-2-(3-morpholinopropoxy)-5,6,7,8-tetrahydropyrido[3,4-d]pyrimidin-4-yl)piperazin-1-yl)prop-2-en-1-one]	> 1000
C=CC(=O)N1CCN(c2ncnc3c2CC(=O)N(c2cc(O)cc4ccccc24)C3)CC1 [Example 113, 4-(4-acryloylpiperazin-1-yl)-7-(3-hydroxynaphthalen-1-yl)-7,8-dihydropyrido[3,4-d]pyrimidin-6(5H)-one]	> 1000
C=CC(=O)N1CC2(C1)CN(c1ncnc3c1CC(=O)N(c1cc(O)cc4ccccc14)C3)C2 [Example 114, 4-(6-acryloyl-2,6-diazaspiro[3.3]heptan-2-yl)-7-(3-hydroxynaphthalen-1-yl)-7,8-dihydropyrido[3,4-d]pyrimidin-6(5H)-one]	> 1000
C=CC(=O)N1CCN(c2nc(O[C@H](C)CN(C)C)nc3c2CCN(c2cc(O)cc4ccccc24)C3)[C@@H](C)C1 [Example 115, 1-((S)-4-(2-(((R)-1-(dimethylamino)propan-2-yl)oxy)-7-(3-hydroxynaphthalen-1-yl)-5,6,7,8-tetrahydropyrido[3,4-d]pyrimidin-4-yl)-3-methylpiperazin-1-yl)prop-2-en-1-one]	0.1 to 1000
C=CC(=O)N1CCN(c2nc(OCCN(C)C)nc3c2CCN(c2cc(O)cc4ccccc24)C3)[C@@H](C)C1 [Example 116, (S)-1-(4-(2-(2-(dimethylamino)ethoxy)-7-(3-hydroxynaphthalen-1-yl)-5,6,7,8-tetrahydropyrido[3,4-d]pyrimidin-4-yl)-3-methylpiperazin-1-yl)prop-2-en-1-one]	0.1 to 1000
C=CC(=O)N1CCN(c2nc(N3CCOCC3)nc3c2CCN(c2cc(O)cc4ccccc24)C3)CC1 [Example 118, 1-(4-(7-(3-hydroxynaphthalen-1-yl)-2-morpholino-5,6,7,8-tetrahydropyrido[3,4-d]pyrimidin-4-yl)piperazin-1-yl)prop-2-en-1-one]	> 1000
C=CC(=O)N1CCN(c2nc(N3CCCC3)nc3c2CCN(c2cc(O)cc4ccccc24)C3)CC1 [Example 119, 1-(4-(7-(3-hydroxynaphthalen-1-yl)-2-(pyrrolidin-1-yl)-5,6,7,8-tetrahydropyrido[3,4-d]pyrimidin-4-yl)piperazin-1-yl)prop-2-en-1-one]	> 1000
C=CC(=O)N1CCN(c2nc(OCCCN3CCOCC3)nc3c2CCN(c2cc(O)cc4ccccc24)C3=O)CC1 [Example 121, 4-(4-acryloylpiperazin-1-yl)-7-(3-hydroxynaphthalen-1-yl)-2-(3-morpholinopropoxy)-6,7-dihydropyrido[3,4-d]pyrimidin-8(5H)-one]	> 1000
C[C@H](CN(C)C)Oc1nc2c(c(N3CCN(C(=O)/C=C/CN(C)C)CC3)n1)CCN(c1cc(O)cc3ccccc13)C2 [Example 122, (R,E)-4-(dimethylamino)-1-(4-(2-((1-(dimethylamino)propan-2-yl)oxy)-7-(3-hydroxynaphthalen-1-yl)-5,6,7,8-tetrahydropyrido[3,4-d]pyrimidin-4-yl)piperazin-1-yl)but-2-en-1-one bis-trifluoroacetate]	> 1000
C=CC(=O)N1CCN(c2nc(O[C@H](C)CN(C)C)nc3c2CCN(c2cc(O)c(F)c4ccccc24)C3)CC1 [Example 124, (R)-1-(4-(2-((1-(dimethylamino)propan-2-yl)oxy)-7-(4-fluoro-3-hydroxynaphthalen-1-yl)-5,6,7,8-tetrahydropyrido[3,4-d]pyrimidin-4-yl)piperazin-1-yl)prop-2-en-1-one]	> 1000
C=CC(=O)N1CCN(c2nc(O[C@H](C)CN(C)C)nc3c2CCN(c2cc(O)c(Cl)c4ccccc24)C3)CC1 [Example 125, (R)-1-(4-(7-(4-chloro-3-hydroxynaphthalen-1-yl)-2-((1-(dimethylamino)propan-2-yl)oxy)-5,6,7,8-tetrahydropyrido[3,4-d]pyrimidin-4-yl)piperazin-1-yl)prop-2-en-1-one]	> 1000
C=CC(=O)N1CCN(c2nc(OCCc3ccccn3)nc3c2CCN(c2cc(O)cc4ccccc24)C3)CC1 [Example 126, 1-(4-(7-(3-hydroxynaphthalen-1-yl)-2-(2-(pyridin-2-yl)ethoxy)-5,6,7,8-tetrahydropyrido[3,4-d]pyrimidin-4-yl)piperazin-1-yl)prop-2-en-1-one trifluoroacetate]	> 1000
C=CC(=O)N1CCN(c2nc(N3CC(N(C)C)C3)nc3c2CCN(c2cc(O)cc4ccccc24)C3)CC1 [Example 128, 1-(4-(2-(3-(dimethylamino)azetidin-1-yl)-7-(3-hydroxynaphthalen-1-yl)-5,6,7,8-tetrahydropyrido[3,4-d]pyrimidin-4-yl)piperazin-1-yl)prop-2-en-1-one]	> 1000
C=CC(=O)N1CCN(c2nc(NCCCN3CCOCC3)nc3c2CCN(c2cc(O)cc4ccccc24)C3)CC1 [Example 133, 1-[4-[7-(3-hydroxy-1-naphthyl)-2-(3-morpholinopropylamino)-6,8-dihydro-5H-pyrido[3,4-d]pyrimidin-4-yl]piperazin-1-yl]prop-2-en-1-one]	> 1000

The next lines start with the values.

IC50 [nM]	Compound
0.1 to 1000	C=CC(=O)N1CCN(c2nc(OC[C@@H]3CCN(C)C3)nc3c2CCN(c2cc(O)cc4ccccc24)C3)CC1 [Example 110, (R)-1-(4-(7-(3-hydroxynaphthalen-1-yl)-2-((1-methylpyrrolidin-3-yl)methoxy)-5,6,7,8-tetrahydropyrido[3,4-d]pyrimidin-4-yl)piperazin-1-yl)prop-2-en-1-one]
0.1 to 1000	C=CC(=O)N1CCN(c2nc(OCCN3CCC[C@H](F)C3)nc3c2CCN(c2cc(O)cc4ccccc24)C3)CC1 [Example 111, (S)-1-(4-(2-(2-(3-fluoropiperidin-1-yl)ethoxy)-7-(3-hydroxynaphthalen-1-yl)-5,6,7,8-tetrahydropyrido[3,4-d]pyrimidin-4-yl)piperazin-1-yl)prop-2-en-1-one]
> 1000	C=CC(=O)N1CCN(c2nc(OCCN3CCOCC3)nc3c2CCN(c2cc(O)cc4ccccc24)C3)CC1 [Example 117, 1-(4-(7-(3-hydroxynaphthalen-1-yl)-2-(2-morpholinoethoxy)-5,6,7,8-tetrahydropyrido[3,4-d]pyrimidin-4-yl)piperazin-1-yl)prop-2-en-1-one]
0.1 to 1000	C=CC(=O)N1CCN(c2nc(O[C@H](C)CN3CCCC3)nc3c2CCN(c2cc(O)cc4ccccc24)C3)CC1 [Example 120, (R)-1-(4-(7-(3-hydroxynaphthalen-1-yl)-2-((1-(pyrrolidin-1-yl)propan-2-yl)oxy)-5,6,7,8-tetrahydropyrido[3,4-d]pyrimidin-4-yl)piperazin-1-yl)prop-2-en-1-one]
> 1000	C=CC(=O)N1CCN(c2nc(OCC(O)CN3CCOCC3)nc3c2CCN(c2cc(O)cc4ccccc24)C3)CC1 (stereo not drawn) [Example 123, 1-(4-(2-(2-hydroxy-3-morpholinopropoxy)-7-(3-hydroxynaphthalen-1-yl)-5,6,7,8-tetrahydropyrido[3,4-d]pyrimidin-4-yl)piperazin-1-yl)prop-2-en-1-one]
0.1 to 1000	C=CC(=O)N1CCN(c2nc(O[C@H](C)[C@H]3CCCN3C)nc3c2CCN(c2cc(O)cc4ccccc24)C3)CC1 [Example 129, 1-[4-[7-(3-hydroxy-1-naphthyl)-2-[(1R)-1-[(2R)-1-methylpyrrolidin-2-yl]ethoxy]-6,8-dihydro-5H-pyrido[3,4-d]pyrimidin-4-yl]piperazin-1-yl]prop-2-en-1-one]
0.1 to 1000	C=CC(=O)N1CCN(c2nc(O[C@@H](C)[C@@H]3CCCN3C)nc3c2CCN(c2cc(O)cc4ccccc24)C3)CC1 [Example 130, 1-(4-(7-(3-hydroxynaphthalen-1-yl)-2-((S)-1-((S)-1-methylpyrrolidin-2-yl)ethoxy)-5,6,7,8-tetrahydropyrido[3,4-d]pyrimidin-4-yl)piperazin-1-yl)prop-2-en-1-one]
0.1 to 1000	C=CC(=O)N1CCN(c2nc(OCC3CCN(C4CCCCC4)C3)nc3c2CCN(c2cc(O)cc4ccccc24)C3)CC1 (stereo not drawn) [Example 132, 1-[4-[2-[(1-cyclohexylpyrrolidin-3-yl)methoxy]-7-(3-hydroxy-1-naphthyl)-6,8-dihydro-5H-pyrido[3,4-d]pyrimidin-4-yl]piperazin-1-yl]prop-2-en-1-one]
0.1 to 1000	C=CC(=O)N1CCN(c2nc(OCCCN3CCN(C(C)=O)CC3)nc3c2CCN(c2cc(O)cc4ccccc24)C3)CC1 [Example 135, 1-[4-[2-[3-(4-acetylpiperazin-1-yl)propoxy]-7-(3-hydroxy-1-naphthyl)-6,8-dihydro-5H-pyrido[3,4-d]pyrimidin-4-yl]piperazin-1-yl]prop-2-en-1-one]
> 1000	C=CC(=O)N1CCN(c2nc(OCCN3CCC(OC)C3)nc3c2CCN(c2cc(O)cc4ccccc24)C3)CC1 (stereo not drawn) [Example 136, 1-[4-[7-(3-hydroxy-1-naphthyl)-2-[2-(3-methoxypyrrolidin-1-yl)ethoxy]-6,8-dihydro-5H-pyrido[3,4-d]pyrimidin-4-yl]piperazin-1-yl]prop-2-en-1-one]
> 1000	C=CC(=O)N1CCN(c2nc(OCCCN3CCC(OC)C3)nc3c2CCN(c2cc(O)cc4ccccc24)C3)CC1 (stereo not drawn) [Example 137, 1-[4-[7-(3-hydroxy-1-naphthyl)-2-[3-(3-methoxypyrrolidin-1-yl)propoxy]-6,8-dihydro-5H-pyrido[3,4-d]pyrimidin-4-yl]piperazin-1-yl]prop-2-en-1-one]
> 1000	C=CC(=O)N1CCN(c2nc(OCCN3CC(F)(F)C3)nc3c2CCN(c2cc(O)cc4ccccc24)C3)CC1 [Example 138, 1-[4-[2-[2-(3,3-difluoroazetidin-1-yl)ethoxy]-7-(3-hydroxy-1-naphthyl)-6,8-dihydro-5H-pyrido[3,4-d]pyrimidin-4-yl]piperazin-1-yl]prop-2-en-1-one]
> 1000	C=CC(=O)N1CCN(c2nc(OCCN3CCC(F)(F)C3)nc3c2CCN(c2cc(O)cc4ccccc24)C3)CC1 [Example 139, 1-[4-[2-[2-(3,3-difluoropyrrolidin-1-yl)ethoxy]-7-(3-hydroxy-1-naphthyl)-6,8-dihydro-5H-pyrido[3,4-d]pyrimidin-4-yl]piperazin-1-yl]prop-2-en-1-one]
